Test results: patent US8329141B2, “Locoregional internal radionuclide ablation of abnormal tissues” (Board of Regents, The University of Texas System, priority 2004, dated 2012)
“Also recorded” adds a separate entry of the source.

Assays:
[1] = up to a 20 mg/kg systemic dose (Kalia; Mohanti et al.); cited from earlier work
rat breast cancer = conditions: systemic injection (Mortimer and Taylor; Moadel et al.); cited from earlier work
[2] = tested on: rat mammary cancer 13762F tumor cells; assay: In vivo tumor growth after intratumoral injection of radiopharmaceuticals (rat mammary cancer model); parameters: species or system Fischer 344 female rats; conditions: for tumor growth / tumor development: 0.6 mCi intratumoral on day 10 in 0.1-0.2 ml saline (pH 4.5-6), FIG. 2
Experimental: The radionuclides YCl3, ^111In—Cl, and ^201Tl—Cl were obtained from a local supplier of radioisotopes, Iso-Tex Diagnostics (Friendswood, Tex.). YCl3 obtained from the supplier was in an acidic preparation with a pH of 2-3, and was subsequently diluted in saline to a final pH of about 4-6 before injection. Initial activities of ^111In—Cl and YCl3 were about 200-500 mCi/ml, and dilution were made with preservative-free saline. YIMA was prepared by co-precipitation, as set forth in U.S. Ser. No. 10/724,027. Briefly, 500 μl of FeCl3 (1 mg Fe/ml) was added to 30 μl of ^90Y chloride (20-40 μCi/30 μl), and either 30 μl of NaOH (1.0 N) or 10 μl of NH4OH (20.0%) was added to the solution to reach a pH of about 7.0 to 9.0. Co-precipitated YIMA radiopharmaceutical macroaggregates were then separated from remaining soluble radionuclides by centrifuging the reactions from 1500 RPM to 3000 RPM×5 minutes, and filtered using a Millipore Nylone (size: 0.45 μm, diameter: 13 mm) to isolate the radiopharmaceutical macroaggregates.
The rat model of in vivo tumor growth was generated as follows. On day zero, 100,000 rat mammary cancer 13762F tumor cells were implanted in a volume of 0.15 ml into the right thigh muscle of Fischer 344 female rats weighing approximately 160 grams. […] YIMA was injected in a volume of 0.2 ml on days 3-7 after tumor implantation. Tumor sizes and body weights of the rats were monitored regularly (5 times a week) for several weeks, or until the tumors grew beyond 2.5 cm, at which time the rats were euthanized.

[3] = In vivo local sequestration at the injection site by serial scintigrams (intramuscular or intratumoral injection); parameters: species or system Fischer rats; conditions: for retention time with free iron / effect of free iron in the injectate on retention / local sequestration: admixture with FeCl3.6H2O; for retention time with free iron: intramuscular or intratumoral injection; for effect of free iron in the injectate on retention / local sequestration: 1 mg Fe in total injectate; for clearance after intramuscular injection: thigh muscle, after only 3 hours, negative control
Experimental: To further study the localization of unsealed radiopharmaceuticals after injection, in vivo imaging studies were carried out comparing ^111In DTPA (In-DTPA) (negative control) and Indium-111-Iron Macroaggregate (^111In-IMA) (positive control) to ^111In—Cl. ^111In emits gamma rays that can be detected using a gamma camera. ^111In-IMA was generated according to methods disclosed in U.S. Ser. No. 10/724,027, incorporated herein by reference. Each radiopharmaceutical was administered by intramuscular injection into the thigh muscle of Fischer rats which weighed approximately 200 grams. Two different doses of ^111In—Cl were administered to the rats, 0.4 and 0.8 mCi in 0.2 ml saline. Distribution of the ^111In—Cl was determined through serial scintigrams. […] In comparison, when ^111In-IMA was administered to rats, consistent retention (84%) of the ^111In-IMA was found 70 hours after administration (FIG. 8). Persistent intramuscular localization of ^111In—Cl was also found in rats for both dose levels of ^111In—Cl, with over 50% of the injected ^111In—Cl remaining in the injection site after three days.
To investigate whether the addition of free iron to radionuclides would increase the locoregional retention of various radionuclides, admixtures of ^67Ga-citrate, YCl3, or ^111In—Cl, were prepared with FeCl3.6H2O at 1-5 mg Fe/ml. Each radionuclide combination/admixture was administered either by intramuscular (IM) injection into the thigh muscle of the left leg (0.1-1.0 mCi) or by intratumoral (IT) injection into a tumor in the right leg (0.4-5.0 mCi) of Fischer rats. Distribution of the radionuclide was determined through serial scintigrams. Whole body images were acquired with a Siemens M-CAM camera using respective photo peaks of Ga-67, Tl-201 (for Y-90), or In-111, and 15-20% windows in photo energy. The typical imaging time was 0.5 to 5 minutes. A respective standard was present in the field of view (0.1-0.5 mCi), and used for image quantification by comparing images with the standard and normalizing the initial injection time as 100%. The Fe content in each combination/admixture was 1 mg in the total injectate.

[4] = intravenous; four days after injection (Kutzner et al.); cited from earlier work
[5] = cited from earlier work
serum proteins = assay: Binding to serum proteins (Centrifree filter separation); type: in vitro ADME, human (patients); conditions: 0.2, 0.5 or 1 μCi added to diluted serum protein, 20 minutes; physiologic range, all concentrations tested
Experimental: To test the hypothesis that local sequestration of ^111In—Cl is due to protein binding, both ^111In—Cl and YCl3 were tested for binding to CSF and serum proteins. Serum proteins were obtained from residual baseline serum and CSF proteins were obtained from patients participating in other research protocols who had consented to blood sampling. To determine the level of ^111In—Cl protein binding, 0.2, 0.5, or 1 μCi of ^111In—Cl was added to diluted CSF (0.125 or 0.5) or diluted serum protein (0.125 and 0.25) and incubated for 20 minutes. To determine the level of YCl3 protein binding, 0.2, 0.5, or 1 μCi of YCl3 was added to diluted CSF (0.063 or 0.5) or diluted serum protein (0.063 and 0.375), and incubated for 20 minutes. After incubation, free radiopharmaceuticals were separated from protein bound ^111In—Cl or YCl3 using Amicon Centrifree Micropartition filters in a single centrifugation step at 3000 g for 15 minutes according to manufacturer's instructions (Amicon, Beverly, Mass.). The percent binding of YCl3 or ^111In—Cl to the CSF or serum protein was then calculated. As shown in FIG. 6 and FIG. 7 respectively, both YCl3 and ^111In—Cl bind avidly to CSF and serum protein within the physiologic range (a dilution factor between 0.2 and 0.6) at all concentrations tested. At room temperature, both YCl3 and ^111In—Cl have greater than 95% binding to serum proteins. […]

[6] = Biodistribution and projected human radiation dosimetry after intravenous or intramuscular injection; type: in vivo, female Fisher rats; conditions: for human dosimetry estimate, kidney / human dosimetry estimate, red marrow: from rat biodistribution
Experimental: To evaluate the radiation toxicity of YCl3 after intravenous or intramuscular injection, parallel experiments were performed to evaluate the biodistribution and projected human radiation dosimetry of both ^111In—Cl and YCl3. The experiments used three female Fisher rats (140-160 grams) for each set of injections. Each rat was injected intravenously, or was injected intramuscularly in the right thigh, with 0.05 mCi of YCl3 or ^111In—Cl (with no carrier added) in 0.1 ml saline (pH 5-6). The effect of initial exposure of the radiopharmaceuticals to interstitial fluid was estimated by serum protein binding experiments using Millipore Centrifree filters as set forth in Example 2. Organs including the right and left femur, as well as the right and left thigh muscles, were harvested from each rat 7 days after injection. Human dosimetry for each radiopharmaceutical was constructed using established anthropomorphic models.

CSF proteins = assay: Binding to CSF proteins (Centrifree filter separation); type: in vitro ADME, human (patients); conditions: 0.2, 0.5 or 1 μCi added to diluted CSF, 20 minutes; physiologic range, all concentrations tested
Experimental: To test the hypothesis that local sequestration of ^111In—Cl is due to protein binding, both ^111In—Cl and YCl3 were tested for binding to CSF and serum proteins. Serum proteins were obtained from residual baseline serum and CSF proteins were obtained from patients participating in other research protocols who had consented to blood sampling. To determine the level of ^111In—Cl protein binding, 0.2, 0.5, or 1 μCi of ^111In—Cl was added to diluted CSF (0.125 or 0.5) or diluted serum protein (0.125 and 0.25) and incubated for 20 minutes. To determine the level of YCl3 protein binding, 0.2, 0.5, or 1 μCi of YCl3 was added to diluted CSF (0.063 or 0.5) or diluted serum protein (0.063 and 0.375), and incubated for 20 minutes. After incubation, free radiopharmaceuticals were separated from protein bound ^111In—Cl or YCl3 using Amicon Centrifree Micropartition filters in a single centrifugation step at 3000 g for 15 minutes according to manufacturer's instructions (Amicon, Beverly, Mass.). The percent binding of YCl3 or ^111In—Cl to the CSF or serum protein was then calculated. As shown in FIG. 6 and FIG. 7 respectively, both YCl3 and ^111In—Cl bind avidly to CSF and serum protein within the physiologic range (a dilution factor between 0.2 and 0.6) at all concentrations tested. At room temperature, both YCl3 and ^111In—Cl have greater than 95% binding to serum proteins.

human cancer cell lines = conditions: a number of human cancer cell lines; cited from earlier work
[7] = FIG. 4, in 0.5 ml saline, YCl3 0.5, 1.0, 2.0 mCi, ^111In—Cl 1.0, 4.0 mCi, FDG 1.0, 2.0, 3.0 mCi, ^67Ga—Fe 1.77 mCi

## O=CC[C@@H](O)[C@H](O)[C@H](O)CO [2DG, 2-deoxy-D-glucose]
[1]
  enhancement of the effects of a radiopharmaceutical: effective in enhancing the effects of a radiopharmaceutical

## OC[C@H]1OC(O)[C@H]([18F])[C@@H](O)[C@@H]1O (stereo partly drawn) [FDG, F-18-2-deoxy-2-fluoro-D-glucose, reference compound]
Rat breast cancer
  induction of apoptosis: sufficient to induce apoptosis
[2]; [7]
  tumor growth: YCl3 appeared to be the only radiopharmaceutical that significantly suppressed tumor growth

## O=C([O-])CC(O)(CC(=O)[O-])C(=O)[O-].[67Ga+3] [^67Ga citrate, Gallium 67 citrate, reference compound]
[3]
  retention time with free iron: Increase in the retention time
[3]; intramuscular injection, without free iron
  retention in the injection site: comparatively short time

## [Cl][Ga]([Cl])[Cl] [^67Ga—Cl, Gallium 67 chloride]
[3]
  retention time with free iron: Increase in the retention time

## [90Y] [^90Y, Yttrium-90]
[4]
  injected amount present in the bones: 50%-80%
[5]; by ICRP-30
  radiation toxicity in red bone marrow: 15-18 cGy/mCi
[5]; derived from distribution of Yttrium-86 citrate in human PET studies (Herzog et al.)
  red marrow dose: 4-6 cGy/mCi

## [Cl][111In]([Cl])[Cl] [^111In—Cl, Indium-111 chloride]
Serum proteins
  binding to serum protein: bind avidly
[2]
  tumor growth / tumor development: not suppressed; also recorded: not reduced; also recorded: did not suppress tumor development
[2]; FIG. 3, in 0.2-0.3 ml saline, YCl3 0.3, 0.6, 1.5 mCi, ^111In—Cl 0.6, 1.2, 2.4, 4.8 mCi, ^67Ga 0.6 mCi
  tumor growth: YCl3 appeared to be the only radiopharmaceutical that significantly suppressed tumor growth
[2]; [7]
  tumor growth: YCl3 appeared to be the only radiopharmaceutical that significantly suppressed tumor growth
[2]; FIG. 5, in 1.0 ml saline, ^111In—Cl 2.2 mCi, ^188Re EDTA 1.5 mCi with or without free iron
  tumor growth: strong tumor suppression
[2]; injection volume increased from 0.2-0.3 ml and 0.5 ml to 1.0 ml, therapeutic dosage not increased
  change in tumor suppression with injection volume: dramatic increase in tumor suppression
[6]; estimated from the left femur (opposite to the injection site)
  skeletal distribution: about 16%
[6]; intramuscular injection in right thigh
  radiation uptake in the right thigh muscle: high
[6]; intramuscular injection in right thigh, decreasing over time to
  radiation uptake in right femur versus contralateral organ: 3 times higher
[6]; intramuscular injection in right thigh, initial
  radiation uptake in right femur versus contralateral organ: 6 times higher
[6]; intramuscular
  human dosimetry estimate, kidney: 1.13 cGy/mCi
  human dosimetry estimate, red marrow: 0.55 cGy/mCi
[6]; intravenous injection, 0.05 mCi in 0.1 ml saline
  organs with the highest uptake: spleen, liver, and kidney
[6]; intravenous
  human dosimetry estimate, kidney: 10.4 cGy/mCi
  human dosimetry estimate, red marrow: 4.01 cGy/mCi
CSF proteins
  binding to CSF: bind avidly
[3]
  retention time with free iron: Increase in the retention time
[3]; intramuscular injection
  effect of free iron in the injectate on retention / local sequestration: does not appear to dramatically affect
[3]; intramuscular, 0.4 and 0.8 mCi in 0.2 ml saline (both dose levels), after three days
  injected radiopharmaceutical remaining in the injection site: over 50%
[3]; intramuscular, acidic solution (pH 3.0) vs basic solution (pH 8.0), FIG. 9
  effect of pH of the injectate on local sequestration: does not appear to dramatically affect
[3]; intratumoral injection
  effect of free iron in the injectate on retention / local sequestration: does appear to increase

## [O]=[188Re](=[O])(=[O])[O-] [^188Re perrhenate, reference compound]
[3]; intratumoral injection, without free iron, FIG. 16
  clearance from the injection site: rapidly cleared
[3]; intratumoral injection
  effect of free iron in the injectate on retention / local sequestration: did not slow down the clearance

## [Cl][201Tl] [^201Tl—Cl, Thallium-201 chloride, reference compound]
[2]
  tumor growth / tumor development: not reduced
[3]; intratumoral injection
  effect of free iron in the injectate on retention / local sequestration: did not dramatically slow down clearance

## Rhodamine-123 [Rh-123]
Human cancer cell lines
  toxicity to cancer cell lines: selectively toxic

## ^111In DTPA [^111In-DTPA, reference compound]
[3]; intramuscular
  clearance after intramuscular injection: rapidly cleared
[3]; intramuscular, listed as In-DTPA
  clearance after intramuscular injection: rapid clearance
